Laboratory results reported in patent US20240132484A1, “BROAD SPECTRUM ANTIVIRAL COMPOUNDS TARGETING THE SKI COMPLEX” (priority 2020, published 2024).
pIC50: −log10 of the molar value. Values joined by “and” are separate entries in the source; they are usually repeats but may differ in a detail not shown here. Identical values can stand only once. “Also recorded” adds a separate entry of the source. Like-named read-outs stand apart in the source and are kept apart here.

Experiments:
SARS2 = assay type: cell-based, SARS-CoV-2; settings: for Percentage Infection Relative to Appropriate DMSO Control with Avg Background Subtraction: Greiner Celigo plates; for Percentage Inhibition Average 1 μM / Screening data (Relative infection to DMSO controls) Average 1 μM: SARS2, 1 μM; for Screening data (Relative infection to DMSO controls) Average 1 μM / Screening data (Relative infection to DMSO controls) Average 5 μM / Screening data (Relative infection to DMSO controls) Average 10 μM / Screening data (Relative infection to DMSO controls) Average 25 μM / Screening data (Relative infection to DMSO controls) Average 50 μM / Average (relative infection to DMSO over the 5 tested concentrations): 100=DMSO control; for Percentage Inhibition Average 5 μM / Screening data (Relative infection to DMSO controls) Average 5 μM: SARS2, 5 μM; for Percentage Inhibition Average 10 μM / Screening data (Relative infection to DMSO controls) Average 10 μM: SARS2, 10 μM; for Percentage Inhibition Average 25 μM / Screening data (Relative infection to DMSO controls) Average 25 μM: SARS2, 25 μM; for Percentage Inhibition Average 50 μM / Screening data (Relative infection to DMSO controls) Average 50 μM: SARS2, 50 μM; for Average (relative infection to DMSO over the 5 tested concentrations): SARS2, average over 1 to 50 uM; for Infection Data, Average, Mean: average of Exp 1-3 (SMW475, SMW477, SMW478)
cells (nuclei count) = settings: for Relative cell count to DMSO controls, Average 1 μM / Relative cell count to DMSO controls, Average 5 μM / Relative cell count to DMSO controls, Average 10 μM / Relative cell count to DMSO controls, Average 25 μM / Relative cell count to DMSO controls, Average 50 μM: toxicity data, 100=DMSO control; for Toxicity Data, Average, Mean: average of Exp 1-3 (SMW475, SMW477, SMW478); for Relative cell count to DMSO controls, Average (for correlation analysis): average value over the 5 tested concentrations (1 to 50 uM)
WDR61 = WDR61 (Homo sapiens, UniProt Q9GZS3); assay: Surface Plasmon Resonance with pure WDR61 protein
A549 cells = settings: antiviral concentrations, 24 h
[1] = tested on: Marburg virus Angola strain (MARV); assay: organism not typed; assay type: cell-based; settings: Huh-7, 48 h, read-out: IC50 against MARV
IAV NS1 mRNA = assay type: cell-based, influenza A virus
Huh7 cells = settings: antiviral concentrations, 24 h
[2] = tested on: Ebola virus Makona strain (EBOV); assay: microbe, parasite or virus in culture; assay type: cell-based; settings: Zaire ebolavirus, Huh-7, 48 h, read-out: IC50 against EBOV
Influenza virus = assay: organism not typed; assay type: cell-based, influenza A virus; settings: for time of addition: inhibition of IAV when drug added 2 h after infection: +2 h versus -2 h and 0 h; for pIC50: A549, 24 h, read-out: IC50 against IAV; for antiviral activity against IAV infection: screening, A549 cells
MERS-CoV = assay: microbe, parasite or virus in culture; assay type: cell-based; settings: Middle East respiratory syndrome-related coronavirus, Huh-7, 24 h, read-out: IC50 against MERS-CoV
IAV NS1 protein = assay type: cell-based, influenza A virus
SARS-CoV = assay type: cell-based; settings: 24 h
IAV RNA = assay: Multi-segment RT-PCR (M-RTPCR) of IAV segments in A549 cells; assay type: cell-based, influenza A virus
SARS-CoV-2 = assay type: cell-based
[3] = tested on: SARS-CoV-2 mRNA (N, RdRp); assay type: cell-based; settings: two gene targets (N, RdRp)

CN(C)CCN(Cc1cocn1)Cc1cccs1 [SILCS35]
Percentage Infection Relative to Appropriate DMSO Control with Avg Background Subtraction (SARS2; Exp 1 (SMW475), 1 uM): 90.30% and 94.24% and 95.59% | Percentage Infection Relative to Appropriate DMSO Control with Avg Background Subtraction (SARS2; Exp 1 (SMW475), 5 uM): 93.18% and 101.74% and 91.54% | Percentage Infection Relative to Appropriate DMSO Control with Avg Background Subtraction (SARS2; Exp 1 (SMW475), 10 uM): 105.47% and 116.87% and 111.43% | Percentage Infection Relative to Appropriate DMSO Control with Avg Background Subtraction (SARS2; Exp 1 (SMW475), 25 uM): 79.86% and 56.98% and 87.77% | Percentage Infection Relative to Appropriate DMSO Control with Avg Background Subtraction (SARS2; Exp 1 (SMW475), 50 uM): 83.26% and 106.28% and 78.51% | Percentage Infection Relative to Appropriate DMSO Control with Avg Background Subtraction (SARS2; Exp 2 (SMW477), 1 uM): 131.21% and 119.10% and 117.97% | Percentage Infection Relative to Appropriate DMSO Control with Avg Background Subtraction (SARS2; Exp 2 (SMW477), 5 uM): 138.25% and 128.36% and 147.80% | Percentage Infection Relative to Appropriate DMSO Control with Avg Background Subtraction (SARS2; Exp 2 (SMW477), 10 uM): 155.83% and 113.76% and 119.79% | Percentage Infection Relative to Appropriate DMSO Control with Avg Background Subtraction (SARS2; Exp 2 (SMW477), 25 uM): 125.42% and 107.58% and 104.40% | Percentage Infection Relative to Appropriate DMSO Control with Avg Background Subtraction (SARS2; Exp 2 (SMW477), 50 uM): 109.53% and 98.67% and 105.03% | Percentage Infection Relative to Appropriate DMSO Control with Avg Background Subtraction (SARS2; Exp 3 (SMW478), 1 uM): 105.76% and 80.57% and 90.16% | Percentage Infection Relative to Appropriate DMSO Control with Avg Background Subtraction (SARS2; Exp 3 (SMW478), 5 uM): 134.19% and 78.79% and 94.59% | Percentage Infection Relative to Appropriate DMSO Control with Avg Background Subtraction (SARS2; Exp 3 (SMW478), 10 uM): 151.59% and 95.94% and 77.50% | Percentage Infection Relative to Appropriate DMSO Control with Avg Background Subtraction (SARS2; Exp 3 (SMW478), 25 uM): 126.08% and 121.76% and 139.01% | Percentage Infection Relative to Appropriate DMSO Control with Avg Background Subtraction (SARS2; Exp 3 (SMW478), 50 uM): 140.10% and 158.92% and 157.74% | Percentage Inhibition Average 1 μM (SARS2): −2.77% | Screening data (Relative infection to DMSO controls) Average 1 μM (SARS2): 102.77 | Percentage Inhibition Average 5 μM (SARS2): −12.05% | Screening data (Relative infection to DMSO controls) Average 5 μM (SARS2): 112.05 | Percentage Inhibition Average 10 μM (SARS2): −16.46% | Screening data (Relative infection to DMSO controls) Average 10 μM (SARS2): 116.46 | Percentage Inhibition Average 25 μM (SARS2): −5.43% | Screening data (Relative infection to DMSO controls) Average 25 μM (SARS2): 105.43 | Percentage Inhibition Average 50 μM (SARS2): −15.34% | Screening data (Relative infection to DMSO controls) Average 50 μM (SARS2): 115.34 | Average (relative infection to DMSO over the 5 tested concentrations) (SARS2): 110.41 | Infection Data, Average, Mean (SARS2; n 9, 1 uM): 102.77% | Infection Data, Average, Mean (SARS2; n 9, 5 uM): 112.05% | Infection Data, Average, Mean (SARS2; n 9, 10 uM): 116.46% | Infection Data, Average, Mean (SARS2; n 9, 25 uM): 105.43% | Infection Data, Average, Mean (SARS2; n 9, 50 uM): 115.34% | Relative cell count to DMSO controls, Average 1 μM (cells (nuclei count)): 105.31 | Relative cell count to DMSO controls, Average 5 μM (cells (nuclei count)): 100.64 | Relative cell count to DMSO controls, Average 10 μM (cells (nuclei count)): 89.77 | Relative cell count to DMSO controls, Average 25 μM (cells (nuclei count)): 93.31 | Relative cell count to DMSO controls, Average 50 μM (cells (nuclei count)): 60.5 | Toxicity Data, Average, Mean (cells (nuclei count); n 9, 1 uM): 105.31% | Toxicity Data, Average, Mean (cells (nuclei count); n 9, 5 uM): 100.64% | Toxicity Data, Average, Mean (cells (nuclei count); n 9, 10 uM): 89.77% | Toxicity Data, Average, Mean (cells (nuclei count); n 9, 25 uM): 93.31% | Toxicity Data, Average, Mean (cells (nuclei count); n 9, 50 uM): 60.50% | Relative cell count to DMSO controls, Average (for correlation analysis) (cells (nuclei count)): 89.91 | direct binding to WDR61 by SPR (WDR61): binding directly to WDR61

COc1ccc(CNCCc2ccccc2F)c(OCC(O)CN2CCN(C)CC2)c1 (stereo not drawn) [UMB18, 1-[2-({[2-(2-fluorophenyl)ethyl]amino}methyl)-5-methoxyphenoxy]-3-(4-methyl-1-piperazinyl)-2-propanol]
toxicity by CellTiter-Glo assay (A549 cells): minimal toxicity | pIC50 [1]: ~4.80 | IAV NS1 mRNA (IAV NS1 mRNA): marked reduction in mRNA | toxicity by CellTiter-Glo assay (Huh7 cells): minimal toxicity | pIC50 [2]: ~5.30 | 10 μM treatment, Average (Influenza virus; 10 μM treatment, average of replicates): 11250 and 1250 and 2000 and 18000 | 10 μM treatment (Influenza virus; 10 μM treatment, replicate 2): 12000 and 1000 and 35000 | 10 μM treatment (Influenza virus; 10 μM treatment, replicate 3): 1000 and 2000 | 10 μM treatment (Influenza virus; 10 μM treatment, replicate 4): 5000 and 1000 | 50 μM treatment Average (Influenza virus; 50 μM compound, average of replicates): 1000 and 333.3 and 0 (2×) | 50 μM treatment (Influenza virus; 50 μM compound, replicate 1, DMSO (0.5%) control run per batch): 0 | 50 μM treatment (Influenza virus; 50 μM compound, replicate 2): 3000 and 0 (2×) | 50 μM treatment (third value column) (Influenza virus; 50 μM compound, replicate 3): 0 and 1000 | 50 μM treatment (fourth value column) (Influenza virus; 50 μM compound, replicate 4): 1000 | time of addition: inhibition of IAV when drug added 2 h after infection (Influenza virus): marked reduction in the level of inhibition | pIC50 (Influenza virus): ~5.30 | antiviral activity against IAV infection (Influenza virus): showed antiviral activity against influenza | pIC50 (MERS-CoV): ~5.30 | NS1 protein by western blot (IAV NS1 protein): lack of NS1 protein

COc1ccc(CNCCc2ccccc2C)c(OCC(O)CN2CCN(C)CC2)c1 (stereo not drawn) [UMB18-2]
inhibition of SARS-CoV (SARS-CoV; 10 μM): inhibition, but to a lesser extent | reduction in virus production (SARS-CoV; 50 μM): 1 log | IAV NS1 mRNA (IAV NS1 mRNA): marked reduction in mRNA | IAV RNA amplified by M-RTPCR (IAV RNA): total loss of IAV RNA | time of addition: inhibition of IAV when drug added 2 h after infection (Influenza virus): marked reduction in the level of inhibition | pIC50 (Influenza virus): ~5.30 | antiviral activity against IAV infection (Influenza virus): capable of inhibiting IAV infection | pIC50 (MERS-CoV): ~5.30 | inhibition of SARS-CoV-2 virus production by TCID50 (SARS-CoV-2): capable of inhibiting virus production; also recorded: less so | SARS-CoV-2 mRNA production [3]: capable of inhibiting SARS-CoV-2 mRNA production | NS1 protein by western blot (IAV NS1 protein): lack of NS1 protein

CN1CCN(CC(O)COc2c(CNCCc3ccccc3F)cccc2C2CCCCC2)CC1 (stereo not drawn) [SILCS4]
Percentage Inhibition Average 1 μM (SARS2): 17.51% | Screening data (Relative infection to DMSO controls) Average 1 μM (SARS2): 82.49 | Percentage Inhibition Average 5 μM (SARS2): 59.94% | Screening data (Relative infection to DMSO controls) Average 5 μM (SARS2): 40.06 | Percentage Inhibition Average 10 μM (SARS2): 86.21% | Screening data (Relative infection to DMSO controls) Average 10 μM (SARS2): 13.79 | Percentage Inhibition Average 25 μM (SARS2): 81.29% | Screening data (Relative infection to DMSO controls) Average 25 μM (SARS2): 18.71 | Percentage Inhibition Average 50 μM (SARS2): 90.83% | Screening data (Relative infection to DMSO controls) Average 50 μM (SARS2): 9.17 | Average (relative infection to DMSO over the 5 tested concentrations) (SARS2): 32.84 | Relative cell count to DMSO controls, Average 1 μM (cells (nuclei count)): 116.22 | Relative cell count to DMSO controls, Average 5 μM (cells (nuclei count)): 123.91 | Relative cell count to DMSO controls, Average 10 μM (cells (nuclei count)): 122.04 | Relative cell count to DMSO controls, Average 25 μM (cells (nuclei count)): 3.91 | Relative cell count to DMSO controls, Average 50 μM (cells (nuclei count)): 2.18 | Toxicity Data, Average, Mean (relative to DMSO control) (cells (nuclei count); Average of Exp 1-3, 1 uM): 116.22% | Toxicity Data, Average, Mean (relative to DMSO control) (cells (nuclei count); Average of Exp 1-3, 5 uM): 123.91% | Toxicity Data, Average, Mean (relative to DMSO control) (cells (nuclei count); Average of Exp 1-3, 10 uM): 122.04% | Toxicity Data, Average, Mean (relative to DMSO control) (cells (nuclei count); Average of Exp 1-3, 25 uM): 3.91% | Toxicity Data, Average, Mean (relative to DMSO control) (cells (nuclei count); Average of Exp 1-3, 50 uM): 2.18% | Relative cell count to DMSO controls, Average (for correlation analysis) (cells (nuclei count)): 73.65 | direct binding to WDR61 by SPR (WDR61): binding directly to WDR61
